pIC50: −log10 of the molar value.
Each compound was assayed against T1, c-kit (Homo sapiens, UniProt P10721) (assay: Mo7e cell proliferation assay (SCF dependent proliferation)). Settings: Table 1; human Mo7e cells stimulated with human recombinant SCF, 48 h, CellTiter Glo; 1% FBS (footnote).
T1 construct: human Mo7e cells which endogenously express c-kit; endogenous in cells; host or cells: human Mo7e cells (SCF-dependent promegakaryocytic leukemia line)
T1 sequence (P10721 26-976): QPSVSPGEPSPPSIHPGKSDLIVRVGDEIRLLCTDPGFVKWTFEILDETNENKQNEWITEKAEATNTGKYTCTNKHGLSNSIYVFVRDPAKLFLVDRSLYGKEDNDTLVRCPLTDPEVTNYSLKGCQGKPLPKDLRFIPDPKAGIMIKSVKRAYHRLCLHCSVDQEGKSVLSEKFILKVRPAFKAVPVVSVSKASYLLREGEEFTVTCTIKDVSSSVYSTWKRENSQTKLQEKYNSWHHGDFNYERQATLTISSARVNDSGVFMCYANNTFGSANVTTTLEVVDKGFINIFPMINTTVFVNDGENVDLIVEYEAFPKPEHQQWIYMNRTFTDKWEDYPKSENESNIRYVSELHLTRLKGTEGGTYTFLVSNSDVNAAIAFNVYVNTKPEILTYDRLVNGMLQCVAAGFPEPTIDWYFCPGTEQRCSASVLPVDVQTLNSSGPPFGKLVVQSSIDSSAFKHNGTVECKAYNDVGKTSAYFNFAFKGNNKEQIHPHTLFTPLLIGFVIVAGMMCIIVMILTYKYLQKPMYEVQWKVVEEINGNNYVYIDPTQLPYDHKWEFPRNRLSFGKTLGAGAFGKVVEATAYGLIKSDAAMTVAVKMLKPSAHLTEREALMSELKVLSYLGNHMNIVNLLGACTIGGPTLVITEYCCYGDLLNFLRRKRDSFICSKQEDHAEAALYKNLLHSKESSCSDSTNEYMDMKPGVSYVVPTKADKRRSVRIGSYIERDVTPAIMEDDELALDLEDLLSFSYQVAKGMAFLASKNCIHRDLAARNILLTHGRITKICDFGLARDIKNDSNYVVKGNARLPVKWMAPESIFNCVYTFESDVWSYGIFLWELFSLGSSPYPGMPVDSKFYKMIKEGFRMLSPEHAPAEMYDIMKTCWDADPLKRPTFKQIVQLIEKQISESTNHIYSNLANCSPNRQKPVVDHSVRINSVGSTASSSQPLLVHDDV
Type: cell-based
Description: Compounds of Formula (I) and Formula (II) provided herein were assayed to measure their capacity to inhibit c-kit and PDGFR kinases using the appropriate assay described below: c-Kit inhibition was evaluated using the Mo7e cell proliferation assay, and PDGFR inhibition was evaluated using the Rat A10 cell proliferation assay and the Human TGHA-VSMC cell proliferation assay.
The compounds of Table 1 and Table 2 were tested for inhibition of SCF dependent proliferation using human Mo7e cells which endogenously express c-kit in a 384 well format. […] After 48 hours of incubation at 37° C., cell viability was measured by adding 25 uL of CellTiter Glo (Promega) to the cells and the luminescence was measured by a CLIPR CCD camera (Molecular Devices).
The IC50 value is given as that concentration of the test compound in question that provoke a response halfway between the baseline and maximum responses.
`Cc1nc(C)c(-c2ccc3ncc(C(=O)Nc4cc(-c5noc(COCC(F)(F)F)n5)ccc4C)n3c2)s1` [F91, 6-(2,4-dimethylthiazol-5-yl)-N-(2-methyl-5-(5-((2,2,2-trifluoroethoxy)methyl)-1,2,4-oxadiazol-3-yl)phenyl)imidazo[1,2-a]pyridine-3-carboxamide] showed a pIC50 of 8.22. For `Cc1nc(-c2ccc(C)c(NC(=O)c3cnc4ccc(-c5ccnc(N)c5)cn34)c2)no1` [F103], the pIC50 was 7.21. With `CNC(=O)c1sc(-c2ccc3ncc(C(=O)Nc4cc(-c5noc(C)n5)ccc4C)n3c2)nc1C` [F258, N,4-dimethyl-2-(3-((2-methyl-5-(5-methyl-1,2,4-oxadiazol-3-yl)phenyl)carbamoyl)imidazo[1,2-a]pyridin-6-yl)thiazole-5-carboxamide] the pIC50 was 7.19. Compound `Cc1ccc(-c2noc(CCNC(=O)OC(C)(C)C)n2)cc1NC(=O)c1cnc2ccccn12` [F2] has a pIC50 of 7.20. In the case of `Cc1nc(-c2ccc(C)c(NC(=O)c3cnc4ccc(-c5sc(CO)nc5C)cn34)c2)no1` [F265, 6-(2-(hydroxymethyl)-4-methylthiazol-5-yl)-N-(2-methyl-5-(5-methyl-1,2,4-oxadiazol-3-yl)phenyl)imidazo[1,2-a]pyridine-3-carboxamide], the pIC50 was 8.10. `Cc1ccc2ncc(C(=O)Nc3cc(-c4noc(CCC(C)(O)C(F)(F)F)n4)ccc3C)n2c1` (stereo not drawn) [F72] was tested, and the pIC50 was 7.46. With `Cc1ccc(-c2noc([C@H](C)NC(=O)OC(C)(C)C)n2)cc1NC(=O)c1cnc2ccccn12` [F13] the pIC50 was 7.03. Compound `Cc1ccc(-c2noc(C[C@@H](O)C(F)(F)F)n2)cc1NC(=O)c1cnc2ccccn12` [F31] has a pIC50 of 7.24. For `Cc1ccc(-c2noc(COC(C)C(F)(F)F)n2)cc1NC(=O)c1cnc2ccccn12` (stereo not drawn) [F96], the pIC50 was 7.96. For `Cc1ccc(-c2noc(CC(O)(C(F)(F)F)C(F)(F)F)n2)cc1NC(=O)c1cnc2ccccn12` [F16], the pIC50 was 7.66. `Cc1nc(-c2ccc(C)c(NC(=O)c3cnc4ccc(-c5ccncc5C)cn34)c2)no1` [F83] showed a pIC50 of 7.32. Compound `Cc1ccn2c(C(=O)Nc3cc(-c4noc(CCC(C)(O)C(F)(F)F)n4)ccc3C)cnc2c1` (stereo not drawn) [F67, 7-methyl-N-(2-methyl-5-(5-(4,4,4-trifluoro-3-hydroxy-3-methylbutyl)-1,2,4-oxadiazol-3-yl)phenyl)imidazo[1,2-a]pyridine-3-carboxamide] has a pIC50 of 7.80. `Cc1ccc(-c2noc(CCC(C)(C)O)n2)cc1NC(=O)c1cnc2cc(N3CCOC3=O)ccn12` [F61] gave a pIC50 of 6.57. `Cc1ccn2c(C(=O)Nc3cc(-c4noc(CC[C@](C)(O)C(F)(F)F)n4)ccc3C)cnc2c1` (single isomer, unassigned) [F75] showed a pIC50 of 7.19. For `Cc1ccc(-c2noc(COCCOC(C)C)n2)cc1NC(=O)c1cnc2ccccn12` [F33, N-(5-(5-((2-isopropoxyethoxy)methyl)-1,2,4-oxadiazol-3-yl)-2-methylphenyl)imidazo[1,2-a]pyridine-3-carboxamide], the pIC50 was 7.09. In the case of `CCN(Cc1nc(-c2ccc(C)c(NC(=O)c3cnc4ccccn34)c2)no1)C(=O)OC` [F23], the pIC50 was 7.23. With `Cc1nc(-c2ccc(C)c(NC(=O)c3cnc4ccc(-c5c(C)nn(CCO)c5C)cn34)c2)no1` [F255, 6-(1-(2-hydroxyethyl)-3,5-dimethyl-1H-pyrazol-4-yl)-N-(2-methyl-5-(5-methyl-1,2,4-oxadiazol-3-yl)phenyl)imidazo[1,2-a]pyridine-3-carboxamide] the pIC50 was 7.80. `Cc1ccc(-c2noc(CCC(C)(O)C(F)(F)F)n2)cc1NC(=O)c1cnc2ccccn12` (stereo not drawn) [F66, N-(2-methyl-5-(5-(4,4,4-trifluoro-3-hydroxy-3-methylbutyl)-1,2,4-oxadiazol-3-yl)phenyl)imidazo[1,2-a]pyridine-3-carboxamide] showed a pIC50 of 7.57. For `Cc1ccc(-c2noc(CNC(=O)OCC(F)F)n2)cc1NC(=O)c1cnc2ccccn12` [F40, 2,2-difluoroethyl ((3-(3-(imidazo[1,2-a]pyridine-3-carboxamido)-4-methylphenyl)-1,2,4-oxadiazol-5-yl)methyl)carbamate], the pIC50 was 7.15. `Cc1ccn2c(C(=O)Nc3cc(-c4noc(COCC(F)(F)F)n4)ccc3C)cnc2c1` [F77] was tested, and the pIC50 was 8.00. In the case of `Cc1ccn2c(C(=O)Nc3cc(-c4noc(C[C@@H](O)C(F)(F)F)n4)ccc3C)cnc2c1` [F99], the pIC50 was 7.35. `Cc1nc(-c2ccc(C)c(NC(=O)c3cnc4ccc(-c5c(C)noc5C)cn34)c2)no1` [F49] was tested, and the pIC50 was 7.28. In the case of `Cc1ccn2c(C(=O)Nc3cc(-c4noc(CCC(C)(OC(=O)[C@H](C)N)C(F)(F)F)n4)ccc3C)cnc2c1` (stereo partly drawn) [F271, (2S)-1,1,1-trifluoro-2-methyl-4-(3-(4-methyl-3-(7-methylimidazo[1,2-a]pyridine-3-carboxamido)phenyl)-1,2,4-oxadiazol-5-yl)butan-2-yl 2-aminopropanoate], the pIC50 was 8.10. `Cc1ccn2c(C(=O)Nc3cc(-c4noc(CC(O)(C(F)(F)F)C(F)(F)F)n4)ccc3C)cnc2c1` [F254] was tested, and the pIC50 was 7.29. `Cc1ccc(-c2noc(CCC(F)(F)F)n2)cc1NC(=O)c1cnc2ccccn12` [F74] showed a pIC50 of 7.44. With `Cc1ccc(Nc2noc(C(C)(C)CO)n2)cc1NC(=O)c1cnc2ccccn12` [F46, N-(5-(5-(1-hydroxy-2-methylpropan-2-yl)-1,2,4-oxadiazol-3-ylamino)-2-methylphenyl)imidazo[1,2-a]pyridine-3-carboxamide] the pIC50 was 7.89. For `COc1ccncc1-c1ccc2ncc(C(=O)Nc3cc(-c4noc(C)n4)ccc3C)n2c1` [F102], the pIC50 was 7.06.

Same assay, conditions: Table 2, values marked *: 20% FBS instead of 1% FBS
`Cc1ccc(-c2nc(CC(=O)N(C)C)no2)cc1NC(=O)c1cnc2ccccn12` [F233] was tested, and the pIC50 was under 5.22.

Same assay, conditions: Table 2; human Mo7e cells stimulated with human recombinant SCF, 48 h, CellTiter Glo; 1% FBS (footnote)
`COC(=O)NCc1nc(-c2ccc(C)c(NC(=O)c3cnc4ccc(CCC(=O)OC(C)(C)C)cn34)c2)no1` [F216] showed a pIC50 of 5.99. In the case of `Cc1ccn2c(C(=O)Nc3cc(-c4noc(CCC(C)(C)OC(=O)CN)n4)ccc3C)cnc2c1` [F249], the pIC50 was 6.97. `CC(=O)OCc1nc(-c2ccc(C)c(NC(=O)c3cnc4ccccn34)c2)no1` [F172] showed a pIC50 of 6.81. `Cc1ccc(-c2noc(CC(F)(F)F)n2)cc1NC(=O)c1cnc2ccccn12` [F231] gave a pIC50 of under 5.00. For `Cc1ccc(-c2noc(CCCS(N)(=O)=O)n2)cc1NC(=O)c1cnc2ccccn12` [F110], the pIC50 was 6.44. `Cc1ccc(-c2noc(C(C)C)n2)cc1NC(=O)c1cnc2ccccn12` [F189] was tested, and the pIC50 was 6.91. `Cc1ccc(-c2noc(C(CC(F)(F)F)N(C)C)n2)cc1NC(=O)c1cnc2ccccn12` (stereo not drawn) [F171] showed a pIC50 of 6.74. For `Cc1ccc(-c2noc(CC(=O)O)n2)cc1NC(=O)c1cnc2ccccn12` [F146], the pIC50 was 6.42. `Cc1nc(-c2ccc(C)c(NC(=O)c3cnc4ccc(CCN5CCNCC5)cn34)c2)no1` [F211] gave a pIC50 of 6.24. Work on `Cc1ccc(-c2noc(C(F)C(F)(F)F)n2)cc1NC(=O)c1cnc2ccccn12` (stereo not drawn) [F199] yielded a pIC50 of 6.90. Work on `Cc1ccc(-c2noc(CCC(C)(C)O)n2)cc1NC(=O)c1cnc2ccc(-n3ccnc3)cn12` [F221] yielded a pIC50 of 5.90. In the case of `Cc1nc(-c2ccc(C)c(NC(=O)c3cnc4ccc(-c5sc(C(=O)NCCN6CCN(C)CC6)nc5C)cn34)c2)no1` [F248], the pIC50 was 6.85. With `Cc1ccc(-c2noc(C[C@@H](C)NS(C)(=O)=O)n2)cc1NC(=O)c1cnc2ccccn12` [F149] the pIC50 was 6.66. `Cc1ccc(-c2noc(CCC(C)(C)O)n2)cc1NC(=O)c1cnc2cc(N3CCOC3=O)ccn12` [F191] gave a pIC50 of 6.57. `Cc1ccc(-c2noc(C(C)(C)CO)n2)cc1NC(=O)c1cnc2ccccn12` [F109] was tested, and the pIC50 was 6.17. In the case of `COCCNC(=O)OCc1nc(-c2ccc(C)c(NC(=O)c3cnc4ccccn34)c2)no1` [F131], the pIC50 was 6.86. For `Cc1ccc(-c2noc(CCC(=O)O)n2)cc1NC(=O)c1cnc2ccccn12` [F229], the pIC50 was 5.26. Compound `Cc1ccc(-c2noc(CNC(=O)CCC(F)(F)F)n2)cc1NC(=O)c1cnc2ccccn12` [F154] has a pIC50 of 6.74. `COC(=O)NCc1nc(-c2ccc(C)c(NC(=O)c3cnc4ccc(CCC(=O)O)cn34)c2)no1` [F230] gave a pIC50 of under 5.00. For `Cc1nc(-c2ccc(C)c(NC(=O)c3cnc4ccc(CCN5CCOCC5C)cn34)c2)no1` (stereo not drawn) [F186], the pIC50 was 6.38. With `Cc1ccc(-c2noc(CNC(=O)OCCC(F)(F)F)n2)cc1NC(=O)c1cnc2ccccn12` [F220] the pIC50 was 5.92. `Cc1ccc(-c2noc(CCCNS(C)(=O)=O)n2)cc1NC(=O)c1cnc2ccccn12` [F115] was tested, and the pIC50 was 6.11. Compound `CC(=O)CCc1ccc2ncc(C(=O)Nc3cc(-c4noc(C)n4)ccc3C)n2c1` [F180] has a pIC50 of 6.45. In the case of `CC(=O)N[C@@H](C)c1nc(-c2ccc(C)c(NC(=O)c3cnc4ccccn34)c2)no1` [F140], the pIC50 was 5.87. For `CC(=O)NCCc1nc(-c2ccc(C)c(NC(=O)c3cnc4ccccn34)c2)no1` [F113], the pIC50 was 6.16. `COCc1n[nH]c(-c2ccc3ncc(C(=O)Nc4cc(-c5noc(CCC(C)(C)O)n5)ccc4C)n3c2)n1` [F214] showed a pIC50 of 6.09. `CCOC(=O)NCCc1nc(-c2ccc(C)c(NC(=O)c3cnc4ccccn34)c2)no1` [F120] gave a pIC50 of 6.61. With `CC(=O)N[C@@H](C)c1nc(-c2ccc(C)c(NC(=O)c3cnc4ccccn34)c2)no1` [F213] the pIC50 was 6.10. Work on `Cc1ccc(-c2noc([C@H](C)NS(C)(=O)=O)n2)cc1NC(=O)c1cnc2ccccn12` [F136] yielded a pIC50 of 6.84. `Cc1nc(-c2ccc(C)c(NC(=O)c3cnc4cc(C#N)ccn34)c2)no1` [F187] showed a pIC50 of 6.66. Work on `Cc1ccc(-c2noc(CCC(N)=O)n2)cc1NC(=O)c1cnc2ccccn12` [F117, N-(5-(5-(3-amino-3-oxopropyl)-1,2,4-oxadiazol-3-yl)-2-methylphenyl)imidazo[1,2-a]pyridine-3-carboxamide] yielded a pIC50 of 6.10. With `CC(C)(C)OC(=O)NCc1nc(-c2ccc(F)c(NC(=O)c3cnc4ccccn34)c2)no1` [F152] the pIC50 was 6.68.
